This is an account of results in US6448283B1, “Methods for preventing/treating damage to sensory hair cells and cochlear neurons” (Cephalon, Inc., priority 1998, dated 2002).

Values joined by “and” are separate entries in the source; they are usually repeats but may differ in a detail not shown here. Equal values may be shown once. “Also recorded” adds a separate entry of the source.

Experiment [1] has as its system pigmented guinea pigs exposed to traumatic octave band noise. Nature of the experiment: ABR hearing thresholds after noise trauma (Example 1). Particulars: guinea pig; 1 mg/kg s.c. daily from 24 h before noise to day 21; noise 4.0 kHz 125 dB SPL 105 min; across test frequencies; 21 days after exposure. The class given is in vivo. How it is done:
Baseline hearing of 8 pigmented guinea pigs (200-300 g) was tested by ABR as described below. ABR is a measure of hearing function. Four animals were treated with daily subcutaneous (s.c.) injections of the compound of Formula II, 1 mg/kg, starting 24 hours prior to noise trauma and lasting until 21 days after exposure to the noise trauma. Four animals served as controls and received only vehicle (the fourth animal died under anaesthesia). All the animals were exposed to traumatic octave band noise, center frequency 4.0 kHz, 125 dB SPL (sound pressure level) for 105 min.
ABR thresholds were again determined 21 days after exposure to the noise trauma. ABR thresholds were measured with System II hardware and BioSig software (Tucker Davis Technology). Stimulus with 1 ms cos2 rise and fall and 18 ms plateau was presented with Beyer earphone connected to speculum (placed in the meatus of the external ear canal) at a rate of 20 Hz. Stimulus was calibrated against a Bruel & Kjaer 4134 microphone connected to a Bruel & Kjaer 2203 sound level meter. A Grass P15 preamplifier and custom amplifier provided gain of 10^5 and filtering of 0.3 to 3.0 kHz. Two responses were obtained at each intensity level. Thresholds were determined for the frequencies 2, 4, 8, 16 and 32 kHz from a set of responses at varying intensities with 5 dB intervals and 1000 sweeps near threshold.

The subject of experiment [2] is outer hair cells in organotypic cultures of the neonatal organ of Corti. Nature of the experiment: Hair cell counts in neomycin-exposed cochlear explant cultures. It is filed as cell-based, rat. How it is done: (§1) The basal half of cochleas containing the basal and middle turns were dissected from postnatal day 2 Wistar rats. The cultures were maintained on Nuclepore filters (pore size […]; Pleasanton, Calif.) placed on a metal grid in F12 medium (Life Technologies, Gaithersburg, Md.) containing 15% fetal bovine serum (Life Technologies). After a 2-hour-long stabilization period, explants were exposed to 100 mM neomycin sulfate (Sigma, St Louis, Mo.) for 48 hr.
(§2) Explants were fixed with 4% paraformaldehyde/0.5% glutaraldehyde in phosphate buffered saline (PBS), pH 7.4, for 30 min and dissected for surface preparations. They were stained with a 1:100 dilution of rhodamine-phalloidin in PBS containing 0.25% Triton X-l 00 overnight at 4° C. and mounted in Vectashield (Vector). Outer hair cell (OHC) numbers were quantified with a Zeiss Axiovert 100/135 epifluorescent microscope (Germany) connected to a Bio-Rad MRC-1024 confocal laser scanning system (Richmond, Calif.). Hair cells were characterized as missing if no stereocilia and cuticular plate were observed. Numbers of OHCs were evaluated using a 40×objective lens and an ocular grid. Nine to 1 fields filled by 30 OHCs in each of the 3 rows (when all of them were present) were studied from each explant. Basal and middle coils were analyzed separately. Three separate experiments, each including 4 explants of both conditions (neomycin and neomycin plus Formula II) were analyzed.
as §1, with “μM” for “mM”, “hr. The compounds of Formula I and the compound of Formula I were added at 500 nM at the time of initiation of the cultures and every 12 hr thereafter. Neomycin plus vehicle was used as a control.” for “hr.”
as §2, with “X-100” for “X-l 00”, “40x objective” for “40×objective”, “Several” for “Nine to 1”, “separately.” for “separately. Three separate experiments, each including 4 explants of both conditions (neomycin and neomycin plus Formula II) were analyzed.”

Experiment [3] concerns cochlear ganglion neurons. Nature of the experiment: Survival of dissociated cochlear neurons in culture. It is filed as cell-based. The following applies: E21 rat cochlear ganglia; Formula II 500 nM; NT-3 2 ng/ml in parallel cultures; 48 hr. As to the method:
Neuronal enriched cultures from embryonic day 21 (E21) rat cochlear ganglia were prepared as previously described (Ylikoski et al., Hear. Res., 1998, 124:17-26). The cultures were maintained in F14 medium (Life Technologies, Gaithesburg, Md.) containing 10% horse serum (Life Technologies). […] After 48 hr, cultures were fixed with 4% paraformaldehyde and responses were assessed under a phase contrast microscope. Surviving neurons were distinguished by a phase-bright cell body and definite neurites.

For experiment [4], the system named is inner and outer hair cells of the cochlea. Nature of the experiment: Hair cell counts, delayed dosing after noise trauma. It is filed as in vivo, guinea pig. How it is done: Guinea pigs were exposed to 120 dB, 4 kHz noise for 6 hr. The compound of Formula II was administered beginning 2 hours to 1 day prior to noise trauma, or 1 day after noise trauma, or 4 days after noise trauma. Dosing continued for 2 weeks after noise exposure. As described above, cochleas were prepared and numbers of preserved and lost inner hair cells (IHCs) and outer hair cells of different rows (OHC1, OHC2, OHC3) were counted 2 weeks post noise trauma.

As to `CCSCc1ccc2c(c1)c1c3c(c4c5cc(CSCC)ccc5n5c4c1n2C1C[C@](O)(C(=O)OC)[C@]5(C)O1)CNC3=O` [Formula II], in experiment [1], the ABR threshold shift was 20-40 dB. Moreover, the “OHCs in the basal turn preserved” value in experiment [2] (500 nM Formula II co-incubated with neomycin for 48 hr, n=12) is “Approximately 90%”. The “neomycin-induced sensory hair cell loss/degeneration” value in experiment [2] (500 nM compound together with neomycin, 48 hr, in words) is on record as “reduced; also recorded: prevented hair cell loss”. In experiment [2] (Rattus norvegicus, 48 h, compound 500 nM plus 100 μM neomycin 48 hr, NEO = neomycin plus vehicle, each line a separate count, read-out: % preserved), the viability at 0.5 µM was 92%. Moreover, the “survival of cochlear neurons” value in experiment [3] is on record as “as efficacious as NT-3”. In addition, the “OHC loss total (%)” value in experiment [4] (1 day delayed dosing, single cochlea) was 6.4% and 3.7% and 1.2% and 2.0% and 5.4% and 2.4%. Also, the “loss of hair cells versus control cochleas” value in experiment [4] (following exposure to noise, 1 day delayed P<0.01, 4 day delayed P<0.05) was “less loss of hair cells”.
